Earlier results as cited in patent publication US12102645B2, “Fluticasone furoate nasal preparation composition” (TOKO YAKUHIN KOGYO CO., LTD., priority 2018, dated 2024).

Solubility in water: very slightly soluble
SMILES: C[C@@H]1C[C@H]2[C@@H]3C[C@H](F)C4=CC(=O)C=C[C@]4(C)[C@@]3(F)[C@@H](O)C[C@]2(C)[C@@]1(OC(=O)c1ccco1)C(=O)SCF [Fluticasone furoate, 6α,9-difluoro-17β-[(fluoromethylsulfanyl)carbonyl]-11β-hydroxy-16α-methyl-3-oxoandrosta-1,4-dien-17α-yl furan-2-carboxylate]
